Test results published in patent US20170348375A1, “DISLODGEMENT AND RELEASE OF HSC FROM THE BONE MARROW STEM CELL NICHE USING ALPHA9 INTEGRIN ANTAGONISTS” (COMMONWEALTH SCIENTIFIC AND INDUSTRIAL RESEARCH ORGANISATION, priority 2014, published 2017).
“Also recorded” adds a separate entry of the source.

Key:
[1] = biological target: T1, human integrin α9β1 (overexpressed in LN18 α9β1 cells, α4-silenced; pMSCV-hITGA9-IRES-hITGB1) (Homo sapiens, UniProt P05556+Q13797); assay: Competitive inhibition of R-BC154 (50 nM) binding to LN18 α9β1 cells by BOP, flow cytometry
T1 construct: expressed in transfected cells; host or cells: LN18 human glioblastoma cells (ATCC CRL-2610), retrovirally transduced with pMSCV-hITGA9-IRES-hITGB1, α4 silenced with pSM2c-shITGA4
Experimental: (§1) Stable LN18 cells over-expressing human integrin α4β1 and α9β1 were generated via retroviral transduction of human glioblastoma LN18 cell lines. Silencing of background α4 expression in parental and α9β1 transduced LN18 cells was achieved by retroviral vector delivery of α4 shRNA.
(§2) (a) Chemical structure of α9β1/α4β1 integrin antagonist BOP (2). […] Data is mean±SEM (n=3) (d) Analysis of the WBC, (e) LSK and (f) LSKSLAM content in the peripheral blood of mice treated with BOP (10 mg/kg) over 90 mins. Data is mean±SEM (n=5 per time point).
(§3) Flow cytometric analysis was performed using an LSR II (BD Biosciences) as previously described in J. Grassinger, et al Blood, 2009, 114, 49-59. […] For BM and PB analysis, up to 5×10^6 cells were analysed at a rate of 10-20 k cell events/sec. For analysis of PB LSKSLAM, up to 1×10^6 events were saved. Cell sorting was performed on a Cytopeia Influx (BD) as previously described in J. Grassinger, et al.
(§4) Stable LN18 cells ((ATCC number: CRL-2610) over-expressing integrin α4β1 (LN18 α4β1) or α9β1 (LN18 α9β1)) were generated by retroviral transduction using the pMSCV-hITGA4-IRES-hITGB1 and pMSCV-hITGA9-IRES-hITGB1 vectors as previously described in J Grassinger, et al Blood, 2009, 114, 49-59 and were maintained in DMEM supplemented with 2 mM L-glutamate in 10% FBS. […]

[2] = biological target: T2, human integrin α4β1 (overexpressed in LN18 α4β1 cells; pMSCV-hITGA4-IRES-hITGB1) (Homo sapiens, UniProt P05556+P13612); assay: Competitive inhibition of R-BC154 (50 nM) binding to LN18 α4β1 cells by BOP, flow cytometry
T2 construct: expressed in transfected cells; host or cells: LN18 human glioblastoma cells (ATCC CRL-2610), retrovirally transduced with pMSCV-hITGA4-IRES-hITGB1
Experimental: as §1, §2, §3, §4

α4β1 integrin = biological target: T3, α4β1 integrin (Homo sapiens, UniProt P05556+P13612); assay: Competitive inhibition of R-BC154 binding to α4β1 LN18 cells; conditions: 1 mM Ca2+/Mg2+
T3 construct: expressed in transfected cells; host or cells: human glioblastoma LN18 (ATCC CRL-2610), retrovirally transduced
Experimental: (§5) Cells were incubated for 90 min at 37° C., washed with PBS, pelleted by centrifugation and resuspended in PBS (200 μl) for flow cytometric analysis. % Max mean fluorescence intensity (MFI) was plotted against the log concentration of BOP and the data fitted to a ligand binding-sigmoidal dose-response curve and IC50 values obtained from graphs.

α9β1 = α9β1 (Homo sapiens, UniProt P05556+Q13797); conditions: Pepinsky et al (2002) FIG. 4b; cited from earlier work
[3] = tested on: α9β1 and α4β1 integrin binding on HSC and progenitors (LSK and LSKSLAM); assay: Competitive displacement of R-BC154 binding to LSK and LSKSLAM cells; format: cell-based, mouse; conditions: 500 nM, 1 mM Ca2+/Mg2+
Experimental: as §5

α9β1 integrin = biological target: T4, α9β1 integrin (Homo sapiens, UniProt P05556+Q13797); assay: Competitive inhibition of R-BC154 binding to α9β1 LN18 cells; conditions: 1 mM Ca2+/Mg2+
T4 construct: expressed in transfected cells; host or cells: human glioblastoma LN18 (ATCC CRL-2610), retrovirally transduced; α4 silenced with pSM2c-shITGA4
Experimental: as §5

[4] = tested on: α4β1 and α9β1 integrins binding to VCAM-1 and Opn; conditions: in vitro; cited from earlier work
[5] = tested on: WBC, LSK and LSKSLAM in PB; assay: Mobilization of HSC and progenitors into peripheral blood; format: in vivo, mouse
Experimental: For mobilization experiments, all mice received subcutaneous injections at 100 μl/10 gm body weight and PB was harvested by throat bleed using EDTA coated syringes.

T4 sequence (Q13797 30-1035): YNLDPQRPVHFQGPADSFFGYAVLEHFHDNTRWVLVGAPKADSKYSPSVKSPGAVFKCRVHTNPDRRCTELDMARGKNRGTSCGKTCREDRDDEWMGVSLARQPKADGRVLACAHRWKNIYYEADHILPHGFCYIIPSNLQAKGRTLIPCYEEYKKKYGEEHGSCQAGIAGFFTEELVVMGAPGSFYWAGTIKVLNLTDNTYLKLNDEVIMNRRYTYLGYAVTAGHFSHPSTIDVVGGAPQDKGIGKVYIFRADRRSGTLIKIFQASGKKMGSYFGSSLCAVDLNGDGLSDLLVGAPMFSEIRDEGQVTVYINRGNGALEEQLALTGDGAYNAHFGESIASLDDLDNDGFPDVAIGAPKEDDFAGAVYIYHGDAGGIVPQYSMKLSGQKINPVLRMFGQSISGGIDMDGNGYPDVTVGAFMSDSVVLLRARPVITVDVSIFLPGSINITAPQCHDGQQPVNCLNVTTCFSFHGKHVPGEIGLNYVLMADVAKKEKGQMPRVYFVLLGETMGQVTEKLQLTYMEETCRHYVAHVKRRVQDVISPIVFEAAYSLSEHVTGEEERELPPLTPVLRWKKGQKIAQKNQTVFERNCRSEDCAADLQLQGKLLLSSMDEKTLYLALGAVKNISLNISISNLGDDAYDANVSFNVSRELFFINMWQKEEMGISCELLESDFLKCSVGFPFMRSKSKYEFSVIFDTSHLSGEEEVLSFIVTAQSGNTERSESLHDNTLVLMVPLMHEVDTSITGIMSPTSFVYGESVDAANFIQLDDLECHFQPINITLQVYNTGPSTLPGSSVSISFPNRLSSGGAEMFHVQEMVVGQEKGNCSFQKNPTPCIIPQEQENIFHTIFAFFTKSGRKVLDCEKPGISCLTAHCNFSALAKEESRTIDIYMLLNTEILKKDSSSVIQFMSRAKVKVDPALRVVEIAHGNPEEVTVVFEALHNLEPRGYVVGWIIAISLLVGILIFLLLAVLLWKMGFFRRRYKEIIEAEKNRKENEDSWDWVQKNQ
T4 sequence (P05556 21-798): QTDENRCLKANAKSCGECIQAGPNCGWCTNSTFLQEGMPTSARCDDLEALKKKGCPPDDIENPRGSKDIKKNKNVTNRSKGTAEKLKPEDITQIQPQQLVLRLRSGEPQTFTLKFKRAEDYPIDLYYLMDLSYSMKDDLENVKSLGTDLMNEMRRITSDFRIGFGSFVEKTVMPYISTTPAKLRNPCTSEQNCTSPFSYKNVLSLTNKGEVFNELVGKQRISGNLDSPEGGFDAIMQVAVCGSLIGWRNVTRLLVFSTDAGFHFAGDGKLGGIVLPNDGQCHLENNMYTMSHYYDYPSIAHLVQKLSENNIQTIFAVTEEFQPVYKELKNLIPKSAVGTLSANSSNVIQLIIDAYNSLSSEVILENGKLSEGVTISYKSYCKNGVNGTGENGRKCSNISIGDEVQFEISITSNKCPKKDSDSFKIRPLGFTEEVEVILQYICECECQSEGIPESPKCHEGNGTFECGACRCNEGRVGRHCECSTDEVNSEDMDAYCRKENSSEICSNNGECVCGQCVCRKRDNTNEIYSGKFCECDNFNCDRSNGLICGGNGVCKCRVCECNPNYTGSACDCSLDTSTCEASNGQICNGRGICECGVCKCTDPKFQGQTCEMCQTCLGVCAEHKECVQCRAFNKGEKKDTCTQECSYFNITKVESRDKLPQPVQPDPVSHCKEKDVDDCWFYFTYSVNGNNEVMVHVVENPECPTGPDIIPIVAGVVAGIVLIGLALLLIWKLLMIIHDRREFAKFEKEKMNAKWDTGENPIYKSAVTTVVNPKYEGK
T1 sequence (Q13797 30-1035): as the sequence (Q13797 30-1035) above
T1 sequence (P05556 21-798): as the sequence (P05556 21-798) above
Chain of α9β1 (Q13797 30-1035): as the sequence (Q13797 30-1035) above
Chain of α9β1 (P05556 21-798): as the sequence (P05556 21-798) above
T2 sequence (P13612 34-1032): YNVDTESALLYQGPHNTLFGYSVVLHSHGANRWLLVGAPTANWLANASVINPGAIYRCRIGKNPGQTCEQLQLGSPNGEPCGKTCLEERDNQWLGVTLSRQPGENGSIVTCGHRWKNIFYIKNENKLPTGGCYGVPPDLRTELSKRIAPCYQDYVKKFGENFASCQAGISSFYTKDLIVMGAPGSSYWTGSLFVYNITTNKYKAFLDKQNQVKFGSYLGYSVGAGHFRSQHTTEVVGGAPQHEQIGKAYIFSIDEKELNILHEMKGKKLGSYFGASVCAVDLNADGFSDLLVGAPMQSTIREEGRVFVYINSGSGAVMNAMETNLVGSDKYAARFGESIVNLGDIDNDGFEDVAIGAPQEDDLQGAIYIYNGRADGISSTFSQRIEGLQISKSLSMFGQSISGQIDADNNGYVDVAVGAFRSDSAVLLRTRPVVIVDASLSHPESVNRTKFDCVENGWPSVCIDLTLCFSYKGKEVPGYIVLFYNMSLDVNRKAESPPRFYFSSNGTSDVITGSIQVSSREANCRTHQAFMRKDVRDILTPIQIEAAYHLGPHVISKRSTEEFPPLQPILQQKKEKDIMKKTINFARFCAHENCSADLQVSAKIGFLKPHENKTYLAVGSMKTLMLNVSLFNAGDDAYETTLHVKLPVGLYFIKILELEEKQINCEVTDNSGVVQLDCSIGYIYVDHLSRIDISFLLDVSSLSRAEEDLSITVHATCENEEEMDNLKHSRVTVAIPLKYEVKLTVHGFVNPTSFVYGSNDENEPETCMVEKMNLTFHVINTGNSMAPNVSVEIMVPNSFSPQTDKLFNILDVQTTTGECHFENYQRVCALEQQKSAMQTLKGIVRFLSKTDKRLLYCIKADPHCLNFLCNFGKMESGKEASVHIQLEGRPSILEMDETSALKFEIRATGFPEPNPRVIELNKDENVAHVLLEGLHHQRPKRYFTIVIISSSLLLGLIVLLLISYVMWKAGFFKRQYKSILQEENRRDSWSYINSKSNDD
T2 sequence (P05556 21-798): as the sequence (P05556 21-798) above
T3 sequence (P13612 34-1032): as the sequence (P13612 34-1032) above
T3 sequence (P05556 21-798): as the sequence (P05556 21-798) above

SMILES | IC50 [1] [nM] | IC50 [2] [nM] | inhibition of α4β1 integrin (competitive inhibition of R-BC154 binding) (α4β1 integrin) | off-rates for α9β1 compared to α4β1 (α9β1) | inhibition of α9β1 and α4β1 integrin binding on HSC and progenitors (displacement of R-BC154) [3] | inhibition of α9β1 integrin (competitive inhibition of R-BC154 binding) (α9β1 integrin) | inhibition of binding of α4β1 and α9β1 integrins to VCAM-1 and Opn [4] | PB WBC, LSK and LSKSLAM compared to the saline control ([5]; 10 mg/kg, C57BL/6 mice, up to 90 mins) | mobilization of HSC with long-term multi-lineage engraftment potential ([5]; summary statement)
O=C(O)[C@H](Cc1ccc(OC(=O)N2CCCC2)cc1)NC(=O)[C@@H]1CCCN1S(=O)(=O)c1ccccc1 [BOP (2), N-(Benzenesulfonyl)-L-prolyl-L-O-(1-pyrrolidinylcarbonyl)tyrosine] | 2.62 | 2.39 |  |  |  |  |  |  | 
O=C(O)[C@H](Cc1ccc(OC(=O)N2CCCC2)cc1)NC(=O)[C@@H]1CCCN1S(=O)(=O)c1ccccc1 [BOP, N-(Benzenesulfonyl)-L-prolyl-L-O-(1-pyrrolidinylcarbonyl)tyrosine] |  |  | potent inhibitor | significantly reduced off-rates | effectively inhibited | potent inhibitor | nanomolar inhibitory potencies; also recorded: can inhibit | significant increases | effectively and rapidly mobilized
